From PubChem BioAssay AID651817 (Broad Institute, 2012)
Activity calls are given as the source filed them.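 The calls were made as follows: active = compound whose fitted luminescence drop, meaning cytotoxicity, reaches half effect at most twice its top valid tested dose; inconclusive = flat curve with a moderate drop, or an unreliable fit; inactive = rise instead of drop, flat response, or weaker potency.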

Test system: not listed separately
Assay: mouse fibroblast viability loss – cell-based, cherry-pick samples, set 2, cytotoxicity control for T. cruzi growth inhibitor project, dose response (AID 651817)
Details: NIH/3T3 viability, ATP luminescence (CellTiter-Glo), 90 h; at 19.5 µM (top of the series)
With `Cc1ccc(S(=O)(=O)N(C)C[C@@H]2Oc3ccc(NS(=O)(=O)c4ccc(Cl)cc4)cc3CC(=O)N([C@@H](C)CO)C[C@H]2C)cc1` the activity change, negative = cytotoxicity was -61.2% (inactive).
With `C[C@@H]1CN([C@@H](C)CO)C(=O)c2cccc(NC(=O)c3ccncc3)c2O[C@H]1CN(C)CC1CC1` the activity change, negative = cytotoxicity was -16.5% (inactive).
With `C[C@H]1CN([C@@H](C)CO)C(=O)c2cccc(NC(=O)c3nc4ccccc4s3)c2O[C@H]1CN(C)S(=O)(=O)c1ccc(Cl)cc1` the activity change, negative = cytotoxicity was 1.37% (inactive).
For `C[C@@H]1CN([C@H](C)CO)C(=O)c2cccc(NC(=O)c3ccncc3)c2O[C@@H]1CN(C)Cc1ccc(C(F)(F)F)cc1`, the activity change, negative = cytotoxicity was -24.5% (inactive).
For `C[C@H](CO)N1C[C@H](C)[C@@H](CN(C)Cc2ccc(Oc3ccccc3)cc2)Oc2c(NC(=O)c3ccncc3)cccc2C1=O`, the activity change, negative = cytotoxicity was 16.4% (inactive).
With `Cc1noc(C)c1NC(=O)Nc1cccc2c1O[C@@H](CN(C)S(C)(=O)=O)[C@H](C)CN([C@@H](C)CO)C2=O` the activity change, negative = cytotoxicity was -28% (inactive).
In the case of `Cc1ccc(S(=O)(=O)N(C)C[C@H]2Oc3c(NC(=O)c4nc5ccccc5s4)cccc3C(=O)N([C@H](C)CO)C[C@@H]2C)cc1`, the activity change, negative = cytotoxicity was -6.91% (inactive).
For `C[C@H](CO)N1C[C@H](C)[C@@H](CN(C)CC2CCCCC2)Oc2c(NC(=O)c3ccncc3)cccc2C1=O`, the activity change, negative = cytotoxicity was -21.4% (inactive).
With `C[C@H]1CN([C@@H](C)CO)C(=O)c2cccc(NC(=O)c3ccncc3)c2O[C@@H]1CN(C)Cc1ccc(Cl)c(Cl)c1` the activity change, negative = cytotoxicity was -25.7% (inactive).

Same assay, conditions: NIH/3T3 viability, ATP luminescence (CellTiter-Glo), 90 h; at 21 µM (top of the series)
In the case of `C[C@H](CO)N1C[C@H](C)[C@H](CN(C)S(=O)(=O)c2ccc(Cl)cc2)Oc2ccc(NS(=O)(=O)c3ccccc3)cc2CC1=O`, the activity change, negative = cytotoxicity was -11.3% (inactive).
With `Cc1ccc(S(=O)(=O)N(C)C[C@@H]2Oc3c(NC(=O)c4nc5ccccc5s4)cccc3C(=O)N([C@H](C)CO)C[C@H]2C)cc1` the activity change, negative = cytotoxicity was 44.2% (inactive).
In the case of `C[C@H]1CN([C@@H](C)CO)C(=O)c2cccc(NC(=O)c3ccncc3)c2O[C@@H]1CN(C)Cc1ccccc1`, the activity change, negative = cytotoxicity was 10.2% (inactive).

Test system: NIH/3T3 viability, ATP luminescence (CellTiter-Glo), 90 h
Assay: as above
Details: not given
In the case of `C[C@@H]1CN([C@@H](C)CO)C(=O)c2cccc(NC(=O)c3ccncc3)c2O[C@H]1CN(C)Cc1ccc(Oc2ccccc2)cc1`, the AC50 was 20.5 µM.
